Literature values as cited in patent US6077934A (priority 1998, dated 2000).

Tested on: Swiss Webster mice
Conditions: mouse, in vivo

## GCX1 X2 EPWC [contryphan-R]
  symptomatology after intracranial injection: "stiff-tail syndrome"
